{"source": "paper PMC10946813", "about": "“Lipophilicity Modulations by Fluorination Correlate with Membrane Partitioning” (Angewandte Chemie (International Ed. in English), 2023)", "key": {"[1]": {"experiment": "Octanol-water partition coefficient (logP OW), 19F NMR method with reference compound"}, "[2]": {"experiment": "Molar membrane partition coefficient (logKp) by 19F MAS solid-state NMR in lipid vesicles", "assay_type": "physicochemical", "conditions": "for Molar Partition Coefficient (logKP): POPC; for logKp Measured as single compound (3.30 mol%): Table 1; for logKp Measured as single compound (3.30 mol%) / logKp Measured as equimolar mixture: POPC bilayers hydrated at 20 % w/v; for increase in logKp: equimolar mixture of 9 and 10 at 3.3 mol % versus compound alone", "protocol": "The principle of the method is explained in Figure 2 (with a detailed description of the protocol provided in Supporting Information). The method utilizes ^19F MAS NMR to quantitate the partitioning of the fluorinated compounds between the aqueous and membrane phases. […] Experimentally, it was determined that only moderate spinning speeds (10 kHz) and low power decoupling (10 kHz decoupling field) were required to obtain well resolved spectra, even at these high magnetic fields; with motional processes within the liquid crystalline lipid bilayer averaging the potentially large chemical shielding anisotropy and dipolar couplings experienced by the fluorine spins. The application of low spinning speeds and radiofrequency decoupling fields also reduces sample heating, whilst minimising the pelleting of the vesicles against the rotor wall. The absence of any discernable sidebands, resulting from incomplete averaging, simplifies the analysis, as this precludes the need to integrate the entire family of sidebands.\nWith knowledge of the number of water ( nW ) and lipid ( nM ) molecules, the molar partition coefficient ( KP) is readily determined.\nTo determine how the concentration of the compound and bilayer hydration influenced the measured logK P, a systematic study of these parameters was undertaken for compound 10 (Figure S2, Table S1). Samples were prepared where the lipids were hydrated at levels between 10 to 30 %(w/v), a range widely used to study the physical properties of lipid bilayers. […] On the basis of the reproducibility of these figures, all subsequent experiments were conducted at 20 % (w/v) hydration with a compound/lipid ratio of 0.033. In addition to providing excellent reproducibility, these concentrations afforded good signal to noise ratios with sensible spectral acquisition times. […]\n(§1) to the r.f. field strength then care should be taken to ensure that the two compounds are similarly excitated. Quantitative data also requires the complete relaxation of the nuclei between scans. For the studies reported here, saturation recovery measurements were performed on each system, with spectra then acquired with a recycle delay of five times T1. It […]\n(§2) shorter T1 values than that of the substrate in aqueous solution, mirroring the observation […]\n(§3) In addition to more general NMR considerations, care must also be exercised to ensure that the signal intensity, particularly that of the membrane bound state, is not influenced by anisotropic interactions that may be present. Due to the molecular dynamics within the lipid bilayer, many of these interactions are already motionally averaged facilitating their removal.\n(§4) The application of low-power (10 kHz) SPINAL-64 decoupling[2] is sufficient to remove the weak scalar and dipolar couplings that are present within the fluid lipid bilayer. Care was taken […]\n(§5) linebroadening due to temperature dependent changes in chemical shift. Similarly, data was acquired with both 5 and 10 kHz MAS and no change in isotropic chemical shift was observed […]\n(§6) However, increasing the spinning speed from 5 to 10 kHz ensured complete averaging the residual chemical shielding anisotropy and other anisotropic contrbutions to the spectra and the presence of a single isotropic resonance for each population. The absence of any discernable sidebands in spectra acquired at 10 kHz allows the accurate integration of the signal intensity without the need to integrate the entire family of sidebands which would be required for a quantitative analysis.\n(§7) Care should be taken when extending this to other compounds where the anisotropy may larger, either due to a larger chemical shielding anisotropy at the fluorine site studied or the application of higher magnetic as this would complicate the signal integration.\nPrior to Fourier Transform, data was processed with 1Hz exponential line broadening and zero filled with 16384 points. The resulting spectra was phased and base line corrected. All processing was performed in Matlab using matNMR[5]. […]"}, "[3]": {"experiment": "Molar membrane partition coefficient (logKp) by 19F MAS NMR in POPC/cholesterol bilayers", "assay_type": "physicochemical", "conditions": "for Molar Partition Coefficient (logKP): Table S3, POPC, 20% (w/v), substrate 3.3 mol%; for fall in logKP: increasing cholesterol up to 50 mol % versus pure POPC membranes", "source_text": "A major advantage of the method presented here compared to logP determination is that it can be applied to membranes of arbitrary complexity, enabling the analysis of the influence of such properties as headgroup size/charge and chain length/saturation. […] As an example of this kind of investigation, a mixed lipid system was employed. In particular, we investigated how increasing concentrations of cholesterol, a commonly found sterol in eukaryotic cell membranes, influenced the membrane partitioning of 9 and 10 (Figure 5, Table S3). […] The fall in logK P mirrors earlier studies where a reduction in membrane partitioning for small molecules has been observed.[19] This reduction has been attributed to the […] of the acyl chain packing and their favourable interactions with the cholesterol.[20] […]\nas §1, §2, §3, §4, §5, §6, §7\nPrior to Fourier Transform, data was processed with 1Hz exponential line broadening and zero filled with 16384 points. The resulting spectra was phased and base line corrected. All processing was performed in Matlab using matNMR[5]. The subsequent resonances where fitted to Lorentzian peaks using custom scripts in Matlab which are available from the authors.\n1.4 Calculation of the molar membrane partition coefficients\nIn the slow exchange limit the molar partition coefficient can then be calculated as:\nK = n\",$/n$ = C\",$/’(’)*.n% = I\",$ . n%\nWhere C\",+ and C\",$ are the concentrations of the substrate in the membrane and aqueous phases respectively and n\", n$ and n% are the number of substrate, lipid and water molecules respectively. The ratio C\",$/’(’)*/C\",%/’(’)* can be determined directly from the ratio of the integrals from the signals arising from the lipidic and aqueous phases (See Figure 2, main paper), whilst the ratio of n%/n$ represents the ratio of water to lipid molecules in the membrane, the degree of hydration.\n2 Influence of exchange between the membrane and aqueous phase on 19F MAS-NMR Lineshape (Figure S1)\nThe influence of chemical exchange is well characterised in the liquid state, however […]"}, "[4]": {"conditions": "Table S2, one 19F resonance evaluated"}}, "note": "Where “and” joins values, the source holds several entries; their conditions need not be identical. Equal values may be shown once."}
{"smiles": "CO[C@@H]1O[C@H](CF)[C@H](F)[C@H](O)[C@H]1O", "note": "[compound 8, methyl 4,6-dideoxy-4,6-difluoro-β-D-galactopyranoside]", "values": [{"measurement": "logP", "setting": "[1]; individual experiment (octanol/water), one of triplicate", "value": "-1.257 and -1.242 and -1.253"}, {"measurement": "logP", "setting": "[1]; octanol/water, Average logP, triplicate", "value": -1.25}, {"measurement": "logP", "setting": "[1]; octanol/water, Error (mean logP with standard deviation), triplicate, three decimals", "value": -1.25}, {"measurement": "Molar Partition Coefficient (logKP)", "setting": "[2]; Table S2, glycosides, first listed 19F resonance", "value": "1.69 ± 0.00"}, {"measurement": "Molar Partition Coefficient (logKP)", "setting": "[2]; Table S2, glycosides, second listed 19F resonance", "value": "1.64 ± 0.06"}]}
{"smiles": "OCCCC(F)(F)CO", "note": "[compound 9]", "values": [{"measurement": "logKp Measured as single compound (3.30 mol%)", "setting": "[2]", "value": "2.01±0.02"}, {"measurement": "Molar Partition Coefficient (logKP)", "setting": "[2]; [4]", "value": "2.01 ± 0.02"}, {"measurement": "Molar Partition Coefficient (logKP)", "setting": "[2]; Table S3, membrane cholesterol 0 mol %, 20% (w/v), substrate 3.3 mol%", "value": "2.01 ± 0.02"}, {"measurement": "increase in logKp", "setting": "[2]", "value": 0.2, "unit": "units"}, {"measurement": "logKp Measured as equimolar mixture", "setting": "[2]; mixture 9+10, 1.65 mol% each", "value": "1.99±0.09"}, {"measurement": "logKp Measured as equimolar mixture", "setting": "[2]; mixture 9+10, 3.30 mol% each", "value": "2.18±0.07"}, {"measurement": "Molar Partition Coefficient (logKP)", "setting": "[3]; membrane cholesterol 25 mol %", "value": "1.87 ± 0.03"}, {"measurement": "Molar Partition Coefficient (logKP)", "setting": "[3]; membrane cholesterol 50 mol %", "value": "1.77 ± 0.02"}, {"measurement": "fall in logKP", "setting": "[3]", "value": 0.24}]}
{"smiles": "OCCC(F)(F)CCO", "note": "[compound 10]", "values": [{"measurement": "logKp Measured as single compound (3.30 mol%)", "setting": "[2]", "value": "1.83±0.04 and 1.83±0.11"}, {"measurement": "logKP", "setting": "[2]; Table S1, hydration 10 % w/v, substrate/lipid 0.010 mole/mole", "value": 1.73}, {"measurement": "logKP", "setting": "[2]; Table S1, hydration 10 % w/v, substrate/lipid 0.033 mole/mole", "value": 1.91}, {"measurement": "logKP", "setting": "[2]; Table S1, hydration 10 % w/v, substrate/lipid 0.100 mole/mole", "value": 1.81}, {"measurement": "logKP", "setting": "[2]; Table S1, hydration 20 % w/v, substrate/lipid 0.010 mole/mole", "value": 1.97}, {"measurement": "logKP", "setting": "[2]; Table S1, hydration 20 % w/v, substrate/lipid 0.033 mole/mole, mean value (n=3)", "value": 1.83}, {"measurement": "logKP", "setting": "[2]; Table S1, hydration 20 % w/v, substrate/lipid 0.100 mole/mole", "value": 1.95}, {"measurement": "logKP", "setting": "[2]; Table S1, hydration 30 % w/v, substrate/lipid 0.010 mole/mole", "value": 1.81}, {"measurement": "logKP", "setting": "[2]; Table S1, hydration 30 % w/v, substrate/lipid 0.033 mole/mole", "value": 1.69}, {"measurement": "logKP", "setting": "[2]; Table S1, hydration 30 % w/v, substrate/lipid 0.100 mole/mole", "value": 1.85}, {"measurement": "logKP, Mean", "setting": "[2]; Table S1, mean over all hydrations (10-30 % w/v) and substrate/lipid ratios (0.010-0.100)", "value": 1.85}, {"measurement": "Molar Partition Coefficient (logKP)", "setting": "[2]; [4]", "value": "1.83 ± 0.04"}, {"measurement": "mean logKP", "setting": "[2]; compound concentration 1 to 10 mol % (with respect to total lipid), mean across all levels of hydration", "value": "1.85±0.02"}, {"measurement": "increase in logKp", "setting": "[2]", "value": 0.2, "unit": "units"}, {"measurement": "mean logKP", "setting": "[2]; lipids hydrated at 10 to 30 %(w/v), mean across the range of compound concentrations studied", "value": "1.85±0.06"}, {"measurement": "logKp Measured as equimolar mixture", "setting": "[2]; mixture 9+10, 1.65 mol% each", "value": "1.84±0.01"}, {"measurement": "logKp Measured as equimolar mixture", "setting": "[2]; mixture 9+10, 3.30 mol% each", "value": "2.01±0.04"}, {"measurement": "logKp Measured as equimolar mixture", "setting": "[2]; mixture 10+13, 3.30 mol% each", "value": "1.88±0.11"}, {"measurement": "Kp at 0.01 mole/mole substrate/lipid", "setting": "[2]; multilamellar POPC vesicles, Table S1, hydration 10 % w/v, substrate/lipid 0.010 mole/mole", "value": 53.4}, {"measurement": "Kp at 0.033 mole/mole substrate/lipid", "setting": "[2]; multilamellar POPC vesicles, Table S1, hydration 10 % w/v, substrate/lipid 0.033 mole/mole", "value": 81.8}, {"measurement": "Kp at 0.1 mole/mole substrate/lipid", "setting": "[2]; multilamellar POPC vesicles, Table S1, hydration 10 % w/v, substrate/lipid 0.100 mole/mole", "value": 64.5}, {"measurement": "Kp at 0.01 mole/mole substrate/lipid", "setting": "[2]; multilamellar POPC vesicles, Table S1, hydration 20 % w/v, substrate/lipid 0.010 mole/mole", "value": 93.9}, {"measurement": "Kp at 0.033 mole/mole substrate/lipid", "setting": "[2]; multilamellar POPC vesicles, Table S1, hydration 20 % w/v, substrate/lipid 0.033 mole/mole", "value": 67.6}, {"measurement": "Kp at 0.1 mole/mole substrate/lipid", "setting": "[2]; multilamellar POPC vesicles, Table S1, hydration 20 % w/v, substrate/lipid 0.100 mole/mole", "value": 89.4}, {"measurement": "Kp at 0.01 mole/mole substrate/lipid", "setting": "[2]; multilamellar POPC vesicles, Table S1, hydration 30 % w/v, substrate/lipid 0.010 mole/mole", "value": 65.3}, {"measurement": "Kp at 0.033 mole/mole substrate/lipid", "setting": "[2]; multilamellar POPC vesicles, Table S1, hydration 30 % w/v, substrate/lipid 0.033 mole/mole", "value": 49.2}, {"measurement": "Kp at 0.1 mole/mole substrate/lipid", "setting": "[2]; multilamellar POPC vesicles, Table S1, hydration 30 % w/v, substrate/lipid 0.100 mole/mole", "value": 70.7}, {"measurement": "Kp", "setting": "[2]; multilamellar POPC vesicles, Table S1, mean over all hydrations (10-30 % w/v) and substrate/lipid ratios (0.010-0.100)", "value": 71.6}, {"measurement": "Molar Partition Coefficient (logKP)", "setting": "[3]; membrane cholesterol 25 mol %", "value": "1.74 ± 0.02"}, {"measurement": "Molar Partition Coefficient (logKP)", "setting": "[3]; membrane cholesterol 50 mol %", "value": "1.68 ± 0.05"}, {"measurement": "fall in logKP", "setting": "[3]", "value": 0.17}]}
{"smiles": "OCCC(F)CCO", "note": "[compound 11]", "values": [{"measurement": "Molar Partition Coefficient (logKP)", "setting": "[2]; [4]", "value": "1.68 ± 0.08"}]}
{"smiles": "OCC(F)(F)CC(F)(F)CO", "note": "[compound 13]", "values": [{"measurement": "logKp Measured as single compound (3.30 mol%)", "setting": "[2]", "value": "2.40±0.07"}, {"measurement": "Molar Partition Coefficient (logKP)", "setting": "[2]; [4]", "value": "2.40 ± 0.07"}, {"measurement": "logKp Measured as equimolar mixture", "setting": "[2]; mixture 10+13, 3.30 mol% each", "value": "2.50±0.10"}]}
{"smiles": "OCC(F)CC(F)(F)CO", "note": "(stereo not shown) [compound 14]", "values": [{"measurement": "Molar Partition Coefficient (logKP)", "setting": "[2]; [4]", "value": "2.01 ± 0.01"}]}
{"smiles": "OC[C@@H](F)C[C@H](F)CO", "note": "[compound 15]", "values": [{"measurement": "Molar Partition Coefficient (logKP)", "setting": "[2]; [4]", "value": "1.85 ± 0.10"}]}
{"smiles": "OC[C@@H](F)C[C@@H](F)CO", "note": "[compound 16]", "values": [{"measurement": "Molar Partition Coefficient (logKP)", "setting": "[2]; [4]", "value": "1.71 ± 0.10"}]}
